According to ChEMBL document CHEMBL3603744, “Structure activity relationship of C-2 ether substituted 1,5-naphthyridine analogs of oxabicyclooctane-linked novel bacterial topoisomerase inhibitors as broad-spectrum antibacterial agents (Part-5)” (Bioorg Med Chem Lett, 2015):
In brackets after ≈: the same amount, converted by molar mass. Activity calls are given as the source filed them. No rule for the calls is given here.

How the values were obtained:
Streptococcus pneumoniae = test: Antimicrobial activity against Streptococcus pneumoniae IID553 by micro broth dilution or agar based method; type: functional
Staphylococcus aureus [1] = test: Antimicrobial activity against Staphylococcus aureus Smith by micro broth dilution or agar based method; type: functional
Escherichia coli = test: Antimicrobial activity against Escherichia coli ATCC 25922 by micro broth dilution or agar based method; type: functional
Acinetobacter baumannii = test: Antimicrobial activity against Acinetobacter baumannii IID876 by micro broth dilution or agar based method; type: functional
Enterococcus faecium = test: Antimicrobial activity against vancomycin-resistant Enterococcus faecium VanA by micro broth dilution or agar based method; type: functional
Staphylococcus aureus [2] = test: Antimicrobial activity against methicillin-resistant Staphylococcus aureus OIT971 by micro broth dilution or agar based method; type: functional, organism-based
Pseudomonas aeruginosa = test: Antimicrobial activity against Pseudomonas aeruginosa PAO1 by micro broth dilution or agar based method; type: functional

Row | Structure (SMILES) | MIC (Streptococcus pneumoniae) [µg/mL] | MIC (Staphylococcus aureus [1]) [µg/mL] | MIC (Escherichia coli) [µg/mL] | MIC (Acinetobacter baumannii) [µg/mL] | MIC (Enterococcus faecium) [µg/mL] | growth inhibition (GI) (Staphylococcus aureus [2]) | MIC (Pseudomonas aeruginosa) [µg/mL]
1 | N#CCCCOc1ccc2ncc(F)c(CCC34CCC(NCc5ccc6c(n5)NC(=O)CO6)(CC3)CO4)c2n1 | 0.5 (≈ 0.915 µM) | 0.031 (≈ 0.0567 µM) | 4 (≈ 7.32 µM) | 2 (≈ 3.66 µM) | 2 (≈ 3.66 µM) | Active | 16 (≈ 29.3 µM)
2 | N[C@H]1COC[C@@H]1Oc1ccc2ncc(F)c(CCC34CCC(NCc5ccc6c(n5)NC(=O)CO6)(CC3)CO4)c2n1 | 4 (≈ 7.08 µM) | 0.25 (≈ 0.443 µM) | 8 (≈ 14.2 µM) | 2 (≈ 3.54 µM) | 16 (≈ 28.3 µM) | Active | 32 (≈ 56.7 µM)
3 | O=C1COc2ccc(CNC34CCC(CCc5c(F)cnc6ccc(OC[C@H]7C[C@@H](O)[C@@H](O)C7)nc56)(CC3)OC4)nc2N1 | 0.5 (≈ 0.842 µM) | 0.063 (≈ 0.106 µM) | 8 (≈ 13.5 µM) | 8 (≈ 13.5 µM) | 4 (≈ 6.74 µM) | Active | 8 (≈ 13.5 µM)
4 | O=C1COc2ccc(CNC34CCC(CCc5c(F)cnc6ccc(OC[C@@H]7C[C@@H](O)[C@@H](O)C7)nc56)(CC3)OC4)nc2N1 | 0.5 (≈ 0.842 µM) | 0.125 (≈ 0.211 µM) | 16 (≈ 27 µM) | 8 (≈ 13.5 µM) | 4 (≈ 6.74 µM) | Active | 32 (≈ 53.9 µM)
5 | COC(=O)C1(COc2ccc3ncc(F)c(CCC45CCC(NCc6ccc7c(n6)NC(=O)CO7)(CC4)CO5)c3n2)CC1 | 2 (≈ 3.38 µM) | 0.125 (≈ 0.211 µM) | 16 (≈ 27 µM) | 8 (≈ 13.5 µM) | 16 (≈ 27 µM) | Active | 16 (≈ 27 µM)
6 | NCC1(COc2ccc3ncc(F)c(CCC45CCC(NCc6ccc7c(n6)NC(=O)CO7)(CC4)CO5)c3n2)CC1 | 0.5 (≈ 0.889 µM) | 1 (≈ 1.78 µM) | 8 (≈ 14.2 µM) | 4 (≈ 7.11 µM) | 16 (≈ 28.4 µM) | Active | 32 (≈ 56.9 µM)
7 | O=C1COc2ccc(CNC34CCC(CCc5c(F)cnc6ccc(OC[C@H]7C[C@@H]7C(=O)O)nc56)(CC3)OC4)nc2N1 | 0.25 (≈ 0.433 µM) | 0.25 (≈ 0.433 µM) | 16 (≈ 27.7 µM) | 16 (≈ 27.7 µM) | 4 (≈ 6.93 µM) | Active | 16 (≈ 27.7 µM)
8 | O=C1COc2ccc(CNC34CCC(CCc5c(F)cnc6ccc(OCC(O)CO)nc56)(CC3)OC4)nc2N1 (stereo unspecified) | 1 (≈ 1.81 µM) | 0.125 (≈ 0.226 µM) | 16 (≈ 28.9 µM) | 4 (≈ 7.23 µM) | 4 (≈ 7.23 µM) | Active | 32 (≈ 57.8 µM)
9 | CCOC(=O)C(F)(F)CCOc1ccc2ncc(F)c(CCC34CCC(NCc5ccc6c(n5)NC(=O)CO6)(CC3)CO4)c2n1 | 8 (≈ 12.7 µM) | 1 (≈ 1.59 µM) | 64 (≈ 102 µM) | 32 (≈ 50.8 µM) | 64 (≈ 102 µM) | Active | 64 (≈ 102 µM)
10 | NCCCCOc1ccc2ncc(F)c(CCC34CCC(NCc5ccc6c(n5)NC(=O)CO6)(CC3)CO4)c2n1 | 1 (≈ 1.82 µM) | 0.5 (≈ 0.908 µM) | 4 (≈ 7.26 µM) | 8 (≈ 14.5 µM) | 8 (≈ 14.5 µM) | Active | 16 (≈ 29.1 µM)
11 | NC1CC1COc1ccc2ncc(F)c(CCC34CCC(NCc5ccc6c(n5)NC(=O)CO6)(CC3)CO4)c2n1 (stereo unspecified) | 1 (≈ 1.82 µM) | 0.125 (≈ 0.228 µM) | 2 (≈ 3.65 µM) | 0.25 (≈ 0.456 µM) | 4 (≈ 7.29 µM) | Active | 16 (≈ 29.2 µM)
12 | O=C1COc2ccc(CNC34CCC(CCc5c(F)cnc6ccc(OCCC(F)(F)C(=O)O)nc56)(CC3)OC4)nc2N1 | 16 (≈ 26.6 µM) | 16 (≈ 26.6 µM) | 16 (≈ 26.6 µM) | 16 (≈ 26.6 µM) | 16 (≈ 26.6 µM) | Active | 16 (≈ 26.6 µM)
13 | COC(=O)CCCCOc1ccc2ncc(F)c(CCC34CCC(NCc5ccc6c(n5)NC(=O)CO6)(CC3)CO4)c2n1 | 0.5 (≈ 0.842 µM) | 0.063 (≈ 0.106 µM) | 4 (≈ 6.74 µM) | 4 (≈ 6.74 µM) | 2 (≈ 3.37 µM) | Active | 4 (≈ 6.74 µM)
14 | O=C1COc2ccc(CNC34CCC(CCc5c(F)cnc6ccc(OC(F)F)nc56)(CC3)OC4)nc2N1 | 0.125 (≈ 0.236 µM) | 0.016 (≈ 0.0302 µM) | 2 (≈ 3.78 µM) | 0.5 (≈ 0.944 µM) | 1 (≈ 1.89 µM) | Active | 4 (≈ 7.55 µM)
15 | O=C1COc2ccc(CNC34CCC(CCc5c(F)cnc6ccc(OCc7cc(=O)c(O)c[nH]7)nc56)(CC3)OC4)nc2N1 | 32 (≈ 53.1 µM) | 8 (≈ 13.3 µM) | 16 (≈ 26.6 µM) | 16 (≈ 26.6 µM) | 64 (≈ 106 µM) | Active | 16 (≈ 26.6 µM)
16 | CC(C)CCOc1ccc2ncc(F)c(CCC34CCC(NCc5ccc6c(n5)NC(=O)CO6)(CC3)CO4)c2n1 | 1 (≈ 1.82 µM) | 0.125 (≈ 0.227 µM) | 16 (≈ 29.1 µM) | 16 (≈ 29.1 µM) | 8 (≈ 14.6 µM) | Active | 16 (≈ 29.1 µM)
17 | N[C@H]1CO[C@H]1COc1ccc2ncc(F)c(CCC34CCC(NCc5ccc6c(n5)NC(=O)CO6)(CC3)CO4)c2n1 | 0.5 (≈ 0.886 µM) | 0.063 (≈ 0.112 µM) | 4 (≈ 7.08 µM) | 1 (≈ 1.77 µM) | 4 (≈ 7.08 µM) | Active | 32 (≈ 56.7 µM)

Row | Structure (SMILES) | MIC (Streptococcus pneumoniae) [µg/mL] | MIC (Staphylococcus aureus [1]) [µg/mL] | MIC (Escherichia coli) [µg/mL] | MIC (Acinetobacter baumannii) [µg/mL] | MIC (Enterococcus faecium) [µg/mL] | growth inhibition (GI) (Staphylococcus aureus [2]) | MIC (Pseudomonas aeruginosa) [µg/mL]
18 | O=C1COc2ccc(CNC34CCC(CCc5c(F)cnc6ccc(OCC7(C(=O)O)CC7)nc56)(CC3)OC4)nc2N1 | 2 (≈ 3.46 µM) | 0.5 (≈ 0.866 µM) | 16 (≈ 27.7 µM) | 16 (≈ 27.7 µM) | 16 (≈ 27.7 µM) | Active | 16 (≈ 27.7 µM)
19 | O=C1COc2ccc(CNC34CCC(CCc5c(F)cnc6ccc(OC7CC(O)CC(O)C7)nc56)(CC3)OC4)nc2N1 (stereo unspecified) | 0.5 (≈ 0.842 µM) | 0.5 (≈ 0.842 µM) | 64 (≈ 108 µM) | 32 (≈ 53.9 µM) | 16 (≈ 27 µM) | Active | 64 (≈ 108 µM)
20 | CCOc1ccc2ncc(F)c(CCC34CCC(NCc5ccc6c(n5)NC(=O)CO6)(CC3)CO4)c2n1 | 0.5 (≈ 0.985 µM) | 0.031 (≈ 0.0611 µM) | 4 (≈ 7.88 µM) | 2 (≈ 3.94 µM) | 2 (≈ 3.94 µM) | Active | 8 (≈ 15.8 µM)
21 | N[C@H]1C(=O)N[C@@H]1COc1ccc2ncc(F)c(CCC34CCC(NCc5ccc6c(n5)NC(=O)CO6)(CC3)CO4)c2n1 | 0.5 (≈ 0.866 µM) | 0.5 (≈ 0.866 µM) | 16 (≈ 27.7 µM) | 32 (≈ 55.4 µM) | 16 (≈ 27.7 µM) | Active | 32 (≈ 55.4 µM)
22 | N[C@@H]1COC[C@H]1Oc1ccc2ncc(F)c(CCC34CCC(NCc5ccc6c(n5)NC(=O)CO6)(CC3)CO4)c2n1 | 0.5 (≈ 0.886 µM) | 0.125 (≈ 0.221 µM) | 4 (≈ 7.08 µM) | 1 (≈ 1.77 µM) | 8 (≈ 14.2 µM) | Active | 16 (≈ 28.3 µM)
23 | O=C(O)CCCOc1ccc2ncc(F)c(CCC34CCC(NCc5ccc6c(n5)NC(=O)CO6)(CC3)CO4)c2n1 | 0.5 (≈ 0.884 µM) | 0.25 (≈ 0.442 µM) | 16 (≈ 28.3 µM) | 16 (≈ 28.3 µM) | 4 (≈ 7.07 µM) | Active | 16 (≈ 28.3 µM)
24 | NCCOc1ccc2ncc(F)c(CCC34CCC(NCc5ccc6c(n5)NC(=O)CO6)(CC3)CO4)c2n1 | 0.5 (≈ 0.957 µM) | 0.25 (≈ 0.478 µM) | 1 (≈ 1.91 µM) | 1 (≈ 1.91 µM) | 4 (≈ 7.65 µM) | Active | 4 (≈ 7.65 µM)
25 | O=C1COc2ccc(CNC34CCC(CCc5c(F)cnc6ccc(OCCCCO)nc56)(CC3)OC4)nc2N1 | 0.5 (≈ 0.906 µM) | 0.031 (≈ 0.0562 µM) | 8 (≈ 14.5 µM) | 2 (≈ 3.63 µM) | 2 (≈ 3.63 µM) | Active | 16 (≈ 29 µM)
26 | O=C1COc2ccc(CNC34CCC(CCc5c(F)cnc6ccc(OC[C@H]7C[C@H]7C(=O)O)nc56)(CC3)OC4)nc2N1 (relative stereo) | 0.125 (≈ 0.216 µM) | 0.125 (≈ 0.216 µM) | 32 (≈ 55.4 µM) | 32 (≈ 55.4 µM) | 2 (≈ 3.46 µM) | Active | 32 (≈ 55.4 µM)
27 | COC(=O)[C@H]1C[C@@H]1COc1ccc2ncc(F)c(CCC34CCC(NCc5ccc6c(n5)NC(=O)CO6)(CC3)CO4)c2n1 (relative stereo) | 0.25 (≈ 0.423 µM) | 0.031 (≈ 0.0524 µM) | 16 (≈ 27 µM) | 8 (≈ 13.5 µM) | 4 (≈ 6.76 µM) | Active | 16 (≈ 27 µM)
28 | O=C1COc2ccc(CNC34CCC(CCc5c(F)cnc6ccc(OCC(CO)CO)nc56)(CC3)OC4)nc2N1 | 0.5 (≈ 0.881 µM) | 0.125 (≈ 0.22 µM) | 16 (≈ 28.2 µM) | 8 (≈ 14.1 µM) | 4 (≈ 7.05 µM) | Active | 32 (≈ 56.4 µM)
29 | O=C1COc2ccc(CNC34CCC(CCc5c(F)cnc6ccc(OC7CCC7)nc56)(CC3)OC4)nc2N1 | 2 (≈ 3.75 µM) | 0.125 (≈ 0.234 µM) | 64 (≈ 120 µM) | 8 (≈ 15 µM) | 8 (≈ 15 µM) | Active | 64 (≈ 120 µM)
30 | N#CC1(COc2ccc3ncc(F)c(CCC45CCC(NCc6ccc7c(n6)NC(=O)CO7)(CC4)CO5)c3n2)CC1 | 1 (≈ 1.79 µM) | 0.063 (≈ 0.113 µM) | 16 (≈ 28.6 µM) | 2 (≈ 3.58 µM) | 4 (≈ 7.16 µM) | Active | 16 (≈ 28.6 µM)
31 | N[C@@H]1C(=O)NC[C@H]1Oc1ccc2ncc(F)c(CCC34CCC(NCc5ccc6c(n5)NC(=O)CO6)(CC3)CO4)c2n1 | 16 (≈ 27.7 µM) | 16 (≈ 27.7 µM) | 16 (≈ 27.7 µM) | 16 (≈ 27.7 µM) | 16 (≈ 27.7 µM) | Active | 16 (≈ 27.7 µM)
32 | O=C1COc2ccc(CNC34CCC([C@@H](O)Cc5c(F)cnc6ccc(OCCO)nc56)(CC3)OC4)nc2N1 | 1 (≈ 1.85 µM) | 0.125 (≈ 0.232 µM) | 8 (≈ 14.8 µM) | 2 (≈ 3.71 µM) | 4 (≈ 7.41 µM) | Active | 16 (≈ 29.7 µM)
33 | O=C1COc2ccc(CNC34CCC(CCc5c(F)cnc6ccc(OCC7(CO)CC7)nc56)(CC3)OC4)nc2N1 | 1 (≈ 1.77 µM) | 0.063 (≈ 0.112 µM) | 16 (≈ 28.4 µM) | 4 (≈ 7.1 µM) | 4 (≈ 7.1 µM) | Active | 32 (≈ 56.8 µM)
